Assay in all cases: cell-based
In assay [1] the target is hNav1.3 (Homo sapiens, UniProt Q9NY46). Particulars: IonWorks Quattro, read-out: IWQ Use Nav1.3. For orientation: The patch-clamp technique gives a direct electrical read-out from membranes.
Assay [2] concerns the target hNav1.7 (Homo sapiens, UniProt Q15858). Type of assay: cell-based. Particulars: IonWorks Quattro.
The target in assay [3] is hNav1.5 (Homo sapiens, UniProt Q14524). As to conditions: IonWorks Quattro, read-out: IWQ Use Nav1.5.
The mark [4] stands for this setting: use-dependent block, hNav1.7, read-out: IWQ Use Nav1.7.
Where [5] appears, read: clamped to −110 mV, depolarized to −10 mV, 5 min after compound, n=2.

The structures appear in SMILES notation. Like-named read-outs stand apart in the source and are kept apart here. Positions of bridges follow the written chain, without caps; N, C: chain ends. Non-standard residues stand in square brackets, D forms with d. Residues, ends and D or L forms follow the SMILES beside them. Orn = NCCC[C@H](N)C(=O)O

Chain of hNav1.3 (Q9NY46 whole entry, looked up): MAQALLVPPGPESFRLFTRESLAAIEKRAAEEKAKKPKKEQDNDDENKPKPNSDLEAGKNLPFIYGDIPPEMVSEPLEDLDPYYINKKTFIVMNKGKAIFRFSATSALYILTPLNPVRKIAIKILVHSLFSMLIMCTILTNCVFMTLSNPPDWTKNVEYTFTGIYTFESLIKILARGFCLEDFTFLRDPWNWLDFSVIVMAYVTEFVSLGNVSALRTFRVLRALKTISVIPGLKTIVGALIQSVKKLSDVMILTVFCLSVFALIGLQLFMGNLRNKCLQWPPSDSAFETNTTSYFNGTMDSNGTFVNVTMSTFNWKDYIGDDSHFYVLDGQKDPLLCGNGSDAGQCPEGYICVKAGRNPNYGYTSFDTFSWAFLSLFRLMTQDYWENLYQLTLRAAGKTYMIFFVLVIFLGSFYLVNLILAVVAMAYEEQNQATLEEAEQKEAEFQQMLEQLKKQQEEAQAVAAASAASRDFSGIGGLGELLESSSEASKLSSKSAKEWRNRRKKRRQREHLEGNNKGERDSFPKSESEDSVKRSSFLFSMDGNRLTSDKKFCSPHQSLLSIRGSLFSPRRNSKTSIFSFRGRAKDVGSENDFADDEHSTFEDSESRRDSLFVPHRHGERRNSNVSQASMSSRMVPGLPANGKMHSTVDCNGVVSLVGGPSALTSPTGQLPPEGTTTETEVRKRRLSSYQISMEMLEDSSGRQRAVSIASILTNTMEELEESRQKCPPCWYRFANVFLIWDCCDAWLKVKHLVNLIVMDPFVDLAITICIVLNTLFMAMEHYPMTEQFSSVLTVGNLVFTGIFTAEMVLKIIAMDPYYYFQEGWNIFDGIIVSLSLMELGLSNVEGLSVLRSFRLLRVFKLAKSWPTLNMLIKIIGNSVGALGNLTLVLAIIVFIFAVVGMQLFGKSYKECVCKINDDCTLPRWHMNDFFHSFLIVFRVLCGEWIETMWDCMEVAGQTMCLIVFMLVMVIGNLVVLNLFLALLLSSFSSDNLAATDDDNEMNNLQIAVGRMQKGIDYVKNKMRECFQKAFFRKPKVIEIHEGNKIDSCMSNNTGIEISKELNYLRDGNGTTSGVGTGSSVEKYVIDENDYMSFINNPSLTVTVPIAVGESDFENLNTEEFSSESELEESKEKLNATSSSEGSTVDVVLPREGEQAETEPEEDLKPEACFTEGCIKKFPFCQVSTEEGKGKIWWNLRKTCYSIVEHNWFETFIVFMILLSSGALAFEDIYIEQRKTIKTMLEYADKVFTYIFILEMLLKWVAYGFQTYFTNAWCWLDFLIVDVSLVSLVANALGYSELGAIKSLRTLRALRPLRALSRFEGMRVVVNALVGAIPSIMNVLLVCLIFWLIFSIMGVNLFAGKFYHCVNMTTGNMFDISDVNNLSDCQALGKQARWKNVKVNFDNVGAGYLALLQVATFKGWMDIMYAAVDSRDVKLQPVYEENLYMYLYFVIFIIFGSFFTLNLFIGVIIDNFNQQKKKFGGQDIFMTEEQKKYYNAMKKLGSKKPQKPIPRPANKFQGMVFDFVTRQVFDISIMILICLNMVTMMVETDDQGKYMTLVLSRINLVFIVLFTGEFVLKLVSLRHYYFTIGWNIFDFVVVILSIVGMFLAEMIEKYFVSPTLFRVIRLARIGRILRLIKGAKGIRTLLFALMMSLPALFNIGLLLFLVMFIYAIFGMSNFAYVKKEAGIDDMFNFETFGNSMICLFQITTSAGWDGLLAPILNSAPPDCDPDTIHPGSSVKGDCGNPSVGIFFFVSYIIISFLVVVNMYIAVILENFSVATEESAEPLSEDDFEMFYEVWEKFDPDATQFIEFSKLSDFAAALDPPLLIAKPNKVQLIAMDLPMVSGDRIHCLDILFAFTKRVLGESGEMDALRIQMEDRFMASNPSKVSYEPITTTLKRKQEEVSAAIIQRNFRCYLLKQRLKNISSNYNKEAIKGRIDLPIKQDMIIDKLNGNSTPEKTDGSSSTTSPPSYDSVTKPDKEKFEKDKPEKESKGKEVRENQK
Chain of hNav1.7 (Q15858 whole entry, looked up): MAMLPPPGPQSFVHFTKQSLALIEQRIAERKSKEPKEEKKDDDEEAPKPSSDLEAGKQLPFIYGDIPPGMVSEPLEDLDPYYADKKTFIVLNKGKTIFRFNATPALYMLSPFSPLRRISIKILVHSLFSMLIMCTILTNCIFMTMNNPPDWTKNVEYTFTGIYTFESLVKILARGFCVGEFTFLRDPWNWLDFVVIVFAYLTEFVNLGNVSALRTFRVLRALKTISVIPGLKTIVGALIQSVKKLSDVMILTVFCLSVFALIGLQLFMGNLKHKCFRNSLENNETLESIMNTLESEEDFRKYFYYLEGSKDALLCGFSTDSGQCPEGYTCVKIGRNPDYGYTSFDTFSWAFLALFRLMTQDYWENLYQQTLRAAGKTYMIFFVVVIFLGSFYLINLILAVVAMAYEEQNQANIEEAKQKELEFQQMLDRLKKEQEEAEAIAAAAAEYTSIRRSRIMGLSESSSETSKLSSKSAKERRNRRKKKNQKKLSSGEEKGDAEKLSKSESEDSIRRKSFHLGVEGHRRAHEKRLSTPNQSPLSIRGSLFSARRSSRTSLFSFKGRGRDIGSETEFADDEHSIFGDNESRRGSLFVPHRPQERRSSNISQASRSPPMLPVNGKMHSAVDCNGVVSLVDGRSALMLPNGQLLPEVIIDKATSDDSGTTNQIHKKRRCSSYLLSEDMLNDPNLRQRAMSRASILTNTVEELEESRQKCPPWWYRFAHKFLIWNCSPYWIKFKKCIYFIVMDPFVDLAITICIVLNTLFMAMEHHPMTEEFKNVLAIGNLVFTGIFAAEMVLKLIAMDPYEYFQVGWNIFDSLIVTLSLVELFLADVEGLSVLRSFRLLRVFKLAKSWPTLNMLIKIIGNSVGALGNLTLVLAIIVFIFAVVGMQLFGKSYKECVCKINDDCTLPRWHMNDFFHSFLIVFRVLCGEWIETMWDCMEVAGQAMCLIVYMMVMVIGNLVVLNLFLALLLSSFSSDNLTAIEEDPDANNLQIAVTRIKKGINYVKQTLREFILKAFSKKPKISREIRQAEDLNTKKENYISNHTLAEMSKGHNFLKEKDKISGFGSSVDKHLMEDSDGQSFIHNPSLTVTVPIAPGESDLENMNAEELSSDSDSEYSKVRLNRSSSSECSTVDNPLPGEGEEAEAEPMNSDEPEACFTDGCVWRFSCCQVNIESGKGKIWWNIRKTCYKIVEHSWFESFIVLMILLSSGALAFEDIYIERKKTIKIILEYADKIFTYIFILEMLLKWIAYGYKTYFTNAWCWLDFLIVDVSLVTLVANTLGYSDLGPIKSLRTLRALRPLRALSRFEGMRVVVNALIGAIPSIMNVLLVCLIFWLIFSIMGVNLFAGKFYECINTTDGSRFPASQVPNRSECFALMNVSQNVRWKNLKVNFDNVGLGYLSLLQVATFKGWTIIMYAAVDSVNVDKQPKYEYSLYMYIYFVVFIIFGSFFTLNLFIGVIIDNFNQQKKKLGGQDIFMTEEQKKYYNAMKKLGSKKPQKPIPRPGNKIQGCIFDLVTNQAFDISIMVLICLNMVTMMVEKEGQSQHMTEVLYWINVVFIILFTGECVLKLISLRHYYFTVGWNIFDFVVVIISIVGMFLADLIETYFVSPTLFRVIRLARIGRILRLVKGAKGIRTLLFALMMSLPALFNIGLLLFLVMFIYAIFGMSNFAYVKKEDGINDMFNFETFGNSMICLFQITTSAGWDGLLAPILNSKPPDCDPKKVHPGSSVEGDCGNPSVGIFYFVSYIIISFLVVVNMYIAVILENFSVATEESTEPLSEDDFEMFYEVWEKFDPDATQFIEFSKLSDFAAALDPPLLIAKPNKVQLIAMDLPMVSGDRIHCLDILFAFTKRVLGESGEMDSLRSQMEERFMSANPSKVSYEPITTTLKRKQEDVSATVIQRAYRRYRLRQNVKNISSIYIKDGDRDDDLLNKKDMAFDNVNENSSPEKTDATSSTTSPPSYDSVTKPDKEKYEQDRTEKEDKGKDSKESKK

`CC[C@H](C)[C@@H]1NC(=O)[C@@H]2CSSC[C@@H]3NC(=O)[C@H](C(C)C)NC(=O)[C@H](CC(C)C)NC(=O)[C@H](CC(N)=O)NC(=O)[C@@H]4CCCN4C(=O)[C@H](CCCNC(=N)N)NC(=O)[C@H](CSSC[C@H](NC(=O)[C@@H](N)CC(=O)O)C(=O)N[C@@H](CC(C)C)C(=O)NCC(=O)N[C@@H](C)C(=O)N[C@@H](Cc4ccccc4)C(=O)N[C@@H](CCCNC(=N)N)C(=O)N[C@@H](CCCCN)C(=O)N2)NC(=O)[C@H](CSSC[C@@H](C(=O)N[C@@H](CCCCN)C(=O)N[C@@H](Cc2ccc(O)cc2)C(=O)N[C@H](C(=O)N[C@@H](Cc2ccccc2)C(N)=O)C(C)C)NC(=O)[C@H](Cc2c[nH]c4ccccc24)NC(=O)[C@H](CCCCN)NC(=O)[C@H](Cc2c[nH]cn2)NC(=O)[C@H]([C@@H](C)O)NC(=O)[C@H](CCC(=O)O)NC(=O)[C@H](CO)NC3=O)NC(=O)[C@H](CCCCN)NC(=O)[C@H](CC(=O)O)NC(=O)[C@H](CC(N)=O)NC(=O)[C@H](CC(=O)O)NC(=O)[C@@H]2CCCN2C1=O` [compound 735] (H-DCLGAFRKCIPDNDKCCRPNLVCSETHKWCKYVF-NH2; disulfide 2-17, 9-23, 16-30): the IC50 was 3.6 µM in assay [1] (use-dependent block, hNav1.3); 1.5 µM in assay [2] (setting [4]); 41 µM in assay [3] (use-dependent block, hNav1.5).
`CC[C@H](C)[C@@H]1NC(=O)[C@@H]2CSSC[C@@H]3NC(=O)[C@H](C(C)C)NC(=O)[C@H](CC(C)C)NC(=O)[C@H](CC(N)=O)NC(=O)[C@@H]4CCCN4C(=O)[C@H](CCCNC(=N)N)NC(=O)[C@H](CSSC[C@H](NC(=O)[C@@H](N)CC(=O)O)C(=O)N[C@@H](CC(C)C)C(=O)NCC(=O)N[C@@H](C)C(=O)N[C@@H](CCSC)C(=O)N[C@@H](CCCNC(=N)N)C(=O)N[C@@H](CCCCN)C(=O)N2)NC(=O)[C@H](CSSC[C@@H](C(=O)N[C@@H](CCCCN)C(=O)N[C@@H](Cc2ccc(O)cc2)C(=O)N[C@H](C(=O)N[C@@H](Cc2ccccc2)C(N)=O)C(C)C)NC(=O)[C@H](Cc2c[nH]c4ccccc24)NC(=O)[C@H](CCCN)NC(=O)[C@H](Cc2c[nH]cn2)NC(=O)[C@H]([C@@H](C)O)NC(=O)[C@H](CCCNC(=N)N)NC(=O)[C@H](CO)NC3=O)NC(=O)[C@H](CCCCN)NC(=O)[C@H](CC(=O)O)NC(=O)[C@H](CC(N)=O)NC(=O)[C@H](CC(=O)O)NC(=O)[C@@H]2CCCN2C1=O` [compound 746] (H-DCLGAMRKCIPDNDKCCRPNLVCSRTH[Orn]WCKYVF-NH2; disulfide 2-17, 9-23, 16-30): the IC50 was 0.76 µM in assay [1] (use-dependent block, hNav1.3); 0.29 µM in assay [2] (setting [4]); 20.7 µM in assay [3] (use-dependent block, hNav1.5).
Turning to `CC[C@H](C)[C@@H]1NC(=O)[C@@H]2CSSC[C@@H]3NC(=O)[C@H](C(C)C)NC(=O)[C@H](CC(C)C)NC(=O)[C@H](CC(N)=O)NC(=O)[C@@H]4CCCN4C(=O)[C@H](CCCNC(=N)N)NC(=O)[C@H](CSSC[C@H](NC(=O)[C@@H](N)CC(=O)O)C(=O)N[C@@H](CC(C)C)C(=O)NCC(=O)N[C@@H](Cc4ccccc4)C(=O)N[C@@H](CCSC)C(=O)N[C@@H](CCCNC(=N)N)C(=O)N[C@@H](CCCCN)C(=O)N2)NC(=O)[C@H](CSSC[C@@H](C(=O)N[C@@H](CCCCN)C(=O)N[C@@H](Cc2ccc(O)cc2)C(=O)N[C@H](C(=O)N[C@@H](Cc2ccccc2)C(=O)N[C@@H](CCCNC(=N)N)C(N)=O)C(C)C)NC(=O)[C@H](Cc2c[nH]c4ccccc24)NC(=O)[C@H](CCCCN)NC(=O)[C@H](Cc2cnc[nH]2)NC(=O)[C@H]([C@@H](C)O)NC(=O)[C@H](CCCNC(=N)N)NC(=O)[C@H](CO)NC3=O)NC(=O)[C@H](CCCCN)NC(=O)[C@H](CC(=O)O)NC(=O)[C@H](CC(N)=O)NC(=O)[C@H](CC(=O)O)NC(=O)[C@@H]2CCCN2C1=O` [compound 76], the IC50 in assay [1] (use-dependent, […]) came to 0.1 µM; in assay [2] (use-dependent, […], read-out: IWQ Use Nav1.7 (μm)), 0.3 µM; in assay [3] (use-dependent, […]), 9.73 µM.
For the molecule `CC[C@H](C)[C@@H]1NC(=O)[C@@H]2CSSC[C@@H]3NC(=O)[C@H]([C@@H](C)O)NC(=O)[C@H](CC(C)C)NC(=O)[C@H](CC(N)=O)NC(=O)[C@@H]4CCCN4C(=O)[C@H](CCCNC(=N)N)NC(=O)[C@H](CSSC[C@H](NC(=O)[C@@H](N)CC(=O)O)C(=O)N[C@@H](CC(C)C)C(=O)NCC(=O)N[C@@H](Cc4ccccc4)C(=O)N[C@@H](CCSC)C(=O)N[C@@H](CCCNC(=N)N)C(=O)N[C@@H](CCCCN)C(=O)N2)NC(=O)[C@H](CSSC[C@@H](C(=O)N[C@@H](CCCCN)C(=O)N[C@@H](Cc2ccc(O)cc2)C(=O)N[C@H](C(=O)N[C@@H](Cc2ccccc2)C(N)=O)C(C)C)NC(=O)[C@H](Cc2c[nH]c4ccccc24)NC(=O)[C@H](CCCCN)NC(=O)[C@H](Cc2c[nH]cn2)NC(=O)[C@H]([C@@H](C)O)NC(=O)[C@H](CCCNC(=N)N)NC(=O)[C@H](CO)NC3=O)NC(=O)[C@H](CCCCN)NC(=O)[C@H](CC(=O)O)NC(=O)[C@H](CC(N)=O)NC(=O)[C@H](CC(=O)O)NC(=O)[C@@H]2CCCN2C1=O` [compound 329] (H-DCLGFMRKCIPDNDKCCRPNLTCSRTHKWCKYVF-NH2; disulfide 2-17, 9-23, 16-30), the IC50 in assay [1] (Use) amounted to 0.08 µM; in assay [2] (Use, read-out: IWQ Use Nav1.7), 0.12 µM; in assay [3] (Use) it was 4.59 µM.
`CC[C@H](C)[C@@H]1NC(=O)[C@@H]2CSSC[C@@H]3NC(=O)[C@H](C(C)C)NC(=O)[C@H](CC(C)C)NC(=O)[C@H](CC(N)=O)NC(=O)[C@@H]4CCCN4C(=O)[C@H](CCCNC(=N)N)NC(=O)[C@H](CSSC[C@H](NC(=O)[C@@H](N)[C@@H](C)O)C(=O)N[C@@H](CC(C)C)C(=O)NCC(=O)N[C@@H](Cc4ccccc4)C(=O)N[C@@H](CCSC)C(=O)N[C@@H](CCCNC(=N)N)C(=O)N[C@@H](CCCCN)C(=O)N2)NC(=O)[C@H](CSSC[C@@H](C(=O)N[C@@H](CCCCN)C(=O)N[C@@H](Cc2ccc(O)cc2)C(=O)N[C@H](C(=O)N[C@@H](Cc2ccccc2)C(N)=O)C(C)C)NC(=O)[C@H](Cc2c[nH]c4ccccc24)NC(=O)[C@H](CCCCN)NC(=O)[C@H](Cc2c[nH]cn2)NC(=O)[C@H]([C@@H](C)O)NC(=O)[C@H](CCCNC(=N)N)NC(=O)[C@H](CO)NC3=O)NC(=O)[C@H](CCCCN)NC(=O)[C@H](CC(=O)O)NC(=O)[C@H](CC(N)=O)NC(=O)[C@H](CC(=O)O)NC(=O)[C@@H]2CCCN2C1=O` [SEQ ID NO: 192] (H-TCLGFMRKCIPDNDKCCRPNLVCSRTHKWCKYVF-NH2; disulfide 2-17, 9-23, 16-30): the IC50 in assay [1] (setting [5]) was found to be 0.07 µM; in assay [2] (clamped to −110 mV, depolarized to −10 mV, 5 min after compound, n=2, read-out: IWQ Use Nav1.7) it was 0.11 µM; in assay [3] (setting [5]) it was 9.21 µM.
For the molecule `CC[C@H](C)[C@@H]1NC(=O)[C@@H]2CSSC[C@@H]3NC(=O)[C@H](C(C)C)NC(=O)[C@H](CC(C)C)NC(=O)[C@H](CC(N)=O)NC(=O)[C@@H]4CCCN4C(=O)[C@H](CCCNC(=N)N)NC(=O)[C@H](CSSC[C@H](NC(=O)[C@@H](N)CC(=O)O)C(=O)N[C@@H](CC(C)C)C(=O)NCC(=O)N[C@@H](Cc4ccccc4)C(=O)N[C@@H](CCSC)C(=O)N[C@@H](CCCNC(=N)N)C(=O)N[C@@H](CCCCN)C(=O)N2)NC(=O)[C@H](CSSC[C@@H](C(=O)N[C@@H](CCCCN)C(=O)N[C@@H](Cc2ccc(O)cc2)C(=O)N[C@H](C(=O)N[C@@H](CCCCN)C(N)=O)C(C)C)NC(=O)[C@H](Cc2c[nH]c4ccccc24)NC(=O)[C@H](CCCCN)NC(=O)[C@H](Cc2cnc[nH]2)NC(=O)[C@H]([C@@H](C)O)NC(=O)[C@H](CCCNC(=N)N)NC(=O)[C@H](CO)NC3=O)NC(=O)[C@H](CCCCN)NC(=O)[C@H](CC(=O)O)NC(=O)[C@H](CC(N)=O)NC(=O)[C@H](CC(=O)O)NC(=O)[C@@H]2CCCN2C1=O` [compound 59] (H-DCLGFMRKCIPDNDKCCRPNLVCSRTHKWCKYVK-NH2; disulfide 2-17, 9-23, 16-30), the IC50 in assay [1] (use-dependent, […]) came to 7.74 µM; in assay [2] (use-dependent, […], read-out: IWQ Use Nav1.7), 5.68 µM; in assay [3] (use-dependent, […]), 18.1 µM.
On to `CC[C@H](C)[C@@H]1NC(=O)[C@@H]2CSSC[C@@H]3NC(=O)[C@H](C(C)C)NC(=O)[C@H](CC(C)C)NC(=O)[C@H](CC(N)=O)NC(=O)[C@@H]4CCCN4C(=O)[C@H](CCCNC(=N)N)NC(=O)[C@H](CSSC[C@H](NC(=O)[C@@H](N)CC(=O)O)C(=O)N[C@@H](CC(C)C)C(=O)NCC(=O)N[C@@H](CCc4ccccc4)C(=O)N[C@@H](CC(C)C)C(=O)N[C@@H](CCCNC(=N)N)C(=O)N[C@@H](CCCCN)C(=O)N2)NC(=O)[C@H](CSSC[C@@H](C(=O)N[C@@H](CCCCN)C(=O)N[C@@H](Cc2ccc(O)cc2)C(=O)N[C@H](C(=O)N[C@@H](Cc2ccccc2)C(N)=O)C(C)C)NC(=O)[C@H](Cc2c[nH]c4ccccc24)NC(=O)[C@H](CCCCN)NC(=O)[C@H](Cc2c[nH]cn2)NC(=O)[C@H]([C@@H](C)O)NC(=O)[C@H](CCCNC(=N)N)NC(=O)[C@H](CO)NC3=O)NC(=O)[C@H](CCCCN)NC(=O)[C@H](CC(=O)O)NC(=O)[C@H](CC(N)=O)NC(=O)[C@H](CC(=O)O)NC(=O)[C@@H]2CCCN2C1=O` [compound 676], for which the IC50 was 0.061 µM in assay [1] (use-dependent protocol, hNav1.3); 0.016 µM in assay [2] (use-dependent protocol, hNav1.7, read-out: IWQ Use Nav1.7); above 5 µM in assay [3] (use-dependent protocol, hNav1.5).

These data come from patent publication US9340590B2 (priority 2011, dated 2016).
